Marks after values point to notes of the source that are not given here.
Columns and labels:
[1] = system: HIV-1 Tat (rTat, AA 1-72 variants); assay: Anti-Tat serum antibody titer (ELISA on rTat) after immunization of rats; type: in vivo, rat; settings: for GMT: rats, week 5, against rTat REK, FIG. 11; for 4 week anti-Tat titer GMT: Rat
Procedure: (§1) Immunogens prepared as described in Example 1 were taken up in buffered saline and injected IP in mice and rats, and SC in rabbits. Unless otherwise stated mice were immunized IP with 1 mg of Immunogen at Day 0 and Week 2 and serums were obtained at Week 4 for titration. Other regimens and species were as noted in the figures.
(§2) Serums were assayed to determine anti-Tat titers by conventional ELISA methods. Briefly, Maxisorp Immuno plates were coated with 2 ng/well rTat and incubated at 22° C. for 1 hour or 4° C. overnight. After thorough washing with 0.1% triton X 100 buffer, blocking with 1% bovine serum albumin (BSA) and rewashing, serum dilutions were applied and incubated at 22° C. for 1 hour. After incubation, the plates were thoroughly washed with triton-X 100 buffer again and 1/10,000 goat anti-mouse IgG-horseradish peroxidase (HRP) conjugate (or the appropriate reagent for rat or rabbit) was applied. The plates were then incubated for 1 hour at 22° C. then washed thoroughly and developed with ABTS for 45 minutes at room temperature on a shaker table. Absorbance was measured at 405 nm. Control wells lacking serum were measured and the titration endpoint was the reciprocal of the […] dilution with an OD greater than mean+8 SDs.
(§3) Animals were purchased from Harlan Laboratories and acclimated at Molecular Diagnostic Services, Inc., for at least one week before immunization. Both BALBc and C57BL6/BALBc F1 mice were used. Lewis rats were used as indicated. Immunogens prepared as described in Example 1 were taken up in buffered saline and injected IP in mice and rats, and administered subcutaneously in Cynomolgous macaque. Animals were immunized with immunogen at Day 0 and Week 2 (day 14) and serums were obtained at Week 4 (day 28) for titration. Doses/animal are noted in Table 4, along with their anti-Tat titers.
Three rats per group were immunized with a different dosage per group of a mixture of all of the experimental immunogens encompassed by the formula Pam3[…] -S-V-D-P-(R/K/N/S)-L-(E/D)-P-W-(K/N)-H-P-G-S-amide (SEQ ID NO: 63); Tat amino acid residue 7, 9, and 12 “wobbles”) with a polar charged sequence flanked by the linkers of the Pam3C (i.e., -S-K-K-K-K-S-). This immunogen is referred to as “TUTI-K4”. Each rat was administered a dose of either 0.1 mg TUTI-K4, or 1 mg TUTI-K4 or 10 mgs TUTI-K4 at day 0. Each rat was boosted with the same dose at week 3. The serum antibody titers for each rat were measured against the full length recombinant Tat (AA 1-72) REK variant protein.

[2] = system: full length recombinant Tat; assay: Tat depletion assay (rat immune serum on Protein A beads, sandwich ELISA); type: binding, HIV-1; settings: said to be associated with the week 5 titers at all doses (0.1, 1, 10 mg)
Procedure: Classical techniques to measure Tat depletion could not be used due to the lack of a membrane that retained antibody but permitted rTat diffusion. Briefly, this assay employs beads coated with antibody which are exposed to rTat and incubated. The antibody binds the Tat, depending upon the amount of Tat in solution. This assay thus measures how well the antibodies in the serum deplete the quantity of full length recombinant Tat.
Control: Normal rat serum not-immunized with HIV-1 Tat B cell epitopes (10% or 1%) was bound to Protein A beads and washed.
Samples: IgG of 10% and 1% serum of the immunized rat were bound to Protein A beads and washed. Undiluted serum has an anti-Tat titer of 1,000,000, as determined according to the method described in Example 3.
Both the Protein A beads of control and of samples were then incubated at room temperature for 30 minutes with a rTat solution. After centrifugation, the levels of Tat in supernatant were measured with a sandwich ELISA. The free Tat after exposure to 10% or 1% immune serum protein A coated beads was expressed as a percentage of the free Tat after exposure to 10% or 1% normal […] serum protein A coated beads, respectively.

[3] = system: HIV-1 Tat (rTat, AA 1-72 variants); assay: Anti-Tat serum antibody titer (ELISA on rTat) after immunization of mice; type: in vivo, mouse; settings: for Titer, GMT: mice, 1.0 mg/mouse IP; for 4 week anti-Tat titer GMT: Mouse
Procedure: as §1, §2, §3
Animals were purchased from Harlan Laboratories and acclimated at Molecular Diagnostic Services, Inc., for at least one week before immunization. Both BALBc and C57BL6/BALBc F1 mice were used. Pam2C-capped immunogens prepared as described in Example 1 were taken up in buffered saline and injected IP. Mice were immunized with 3 injections of 1.0 mg/mouse Pam2C-capped immunogen with titrations before first boost and 2 weeks after each boost according to Table 5.

HIV-1 Tat (rTat) = assay: Anti-Tat serum antibody titer (ELISA on rTat) after immunization of Cynomolgous macaque; type: in vivo; settings: 10.0 mg/animal subcutaneously at Day 0 and Week 2
Procedure: as §2
Animals were purchased from Harlan Laboratories and acclimated at Molecular Diagnostic Services, Inc., for at least one week before immunization. Both BALBc and C57BL6/BALBc F1 mice were used. Lewis rats were used as indicated. Immunogens prepared as described in Example 1 were taken up in buffered saline and injected IP in mice and rats, and administered subcutaneously in Cynomolgous macaque. […]

[4] = Toxicity of immunogen dose in mice; type: in vivo; settings: Mouse; 10.0 mg/animal (400 mg/kg)
Description: as §3

[5] = 1.0 mg/animal IP at Day 0 and Week 2

Pam3C-SKKKKSQYIKANSKFIGITEL -S-V-D-P-(R/K/N/S)-L-(E/D)-P-W-(K/N)-H-P-G-S-amide [TUTI-K4]
GMT ([1]; 0.1 mg at day 0 and week 3): about 500,000
GMT ([1]; 1 mg at day 0 and week 3): about 1,000,000
GMT ([1]; 10 mg at day 0 and week 3): about 1,000,000
reduction of free Tat levels [2]: greater than 99%

Pam2C-SSQYIKANSKFIGITELSVDP-(R/K/N/S)-L-(E/D)-P-W-(K/N)-H-P-G-S-amide [Pam2-QYIK-TEP1]
Titer, GMT ([3]; prime boost D0, W2, W4, bleed week 2): 140,000
Titer, GMT ([3]; prime boost D0, W2, W4, bleed week 4): 950,000
Titer, GMT ([3]; prime boost D0, W2, W4, bleed week 6): 750,000
Titer, GMT ([3]; prime boost D0, W3, W6, bleed week 3): 160,000
Titer, GMT ([3]; prime boost D0, W3, W6, bleed week 5): 930,000
Titer, GMT ([3]; prime boost D0, W3, W6, bleed week 8): 3,300,000
Titer, GMT ([3]; prime boost D0, W4, W8, bleed week 4): 70,000
Titer, GMT ([3]; prime boost D0, W4, W8, bleed week 6): 400,000
Titer, GMT ([3]; prime boost D0, W4, W8, bleed week 10): 3,000,000

Pam3C-SSQYIKANSKFIGITELSVDP-(R/K/N/S)-L-(E/D)-P-W-(K/N)-H-P-G-S-amide [Pam3-QYIK-TEP1]
4 week anti-Tat titer GMT [3, 5]: 120,000*
4 week anti-Tat titer GMT ([3]; 3.0 mg/animal IP at Day 0 and Week 2): 220,000
geometric mean antibody titers in serum ([3]; single mouse, on all eight rTat (AA 1-72) immunodominant epitope variants, FIG. 2): > 100,000
4 week anti-Tat titer GMT [1, 5]: 170,000
4 week anti-Tat titer GMT ([1]; 10.0 mg/animal IP at Day 0 and Week 2): 460,000
antibody titers (GMT) in serum ([1]; single rat, prime day 0, boosts at 3 and 6 weeks, bleed at 8 weeks, on all eight rTat (AA1-72) variants, FIG. 9): > 1,000,000
4 week anti-Tat titer GMT (HIV-1 Tat (rTat)): 900,000
toxicity [4]: Lethal**

Reference: patent US7943140B2, “Compositions and methods for the treatment and prophylaxis of multiple strains and subtypes of HIV-1” (priority 2006, dated 2011)
